Laboratory results reported in patent US12077503B2, “Substituted cyclic amides and their use as herbicides” (FMC CORPORATION, priority 2015, dated 2024).

Experiments:
Format in all cases: in vivo
[1] = system: barnyardgrass (Echinochloa crus-galli); assay: Test A preemergence; details: Preemergence; for Plant response rating, Barnyardgrass: 125 g ai/ha, visual injury after approximately 10 d, 0 to 100 scale where 0 is no effect and 100 is complete control; for Barnyardgrass plant response rating (0 to 100 scale, 0 is no effect, 100 is complete control): 500 g ai/ha, visual injury approx. 10 d
Outline: (§1)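 Each rating is a visual injury score from 0 to 100 given about 10 d after treatment, judged against untreated controls kept alongside in the greenhouse. In loam soil–sand blend, seeds got a preemergence directed soil spray, while postemergence plants were 2 to 10 cm tall at spraying.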

[2] = system: pigweed (Amaranthus retroflexus); assay: Test A preemergence; details: Preemergence; for Plant response rating, Pigweed: 125 g ai/ha, visual injury after approximately 10 d, 0 to 100 scale where 0 is no effect and 100 is complete control; for Pigweed plant response rating (0 to 100 scale, 0 is no effect, 100 is complete control): 500 g ai/ha, visual injury approx. 10 d
[3] = system: ragweed (common ragweed, Ambrosia elatior); assay: Test A preemergence; details: Preemergence; for Plant response rating, Ragweed: 125 g ai/ha, visual injury after approximately 10 d, 0 to 100 scale where 0 is no effect and 100 is complete control; for Ragweed plant response rating (0 to 100 scale, 0 is no effect, 100 is complete control): 500 g ai/ha, visual injury approx. 10 d
Outline: as §1

[4] = system: ryegrass, Italian (Italian ryegrass, Lolium multiflorum); assay: Test A preemergence; details: Preemergence; for Plant response rating, Ryegrass, Italian: 125 g ai/ha, visual injury after approximately 10 d, 0 to 100 scale where 0 is no effect and 100 is complete control; for Ryegrass, Italian plant response rating (0 to 100 scale, 0 is no effect, 100 is complete control): 500 g ai/ha, visual injury approx. 10 d
Outline: as §1

Kochia (Kochia scoparia) [5] = assay: Test A preemergence; details: Preemergence; for Plant response rating, Kochia: 125 g ai/ha, visual injury after approximately 10 d, 0 to 100 scale where 0 is no effect and 100 is complete control; for Kochia plant response rating (0 to 100 scale, 0 is no effect, 100 is complete control): 500 g ai/ha, visual injury approx. 10 d
Outline: as §1

[6] = system: giant foxtail (Setaria faberii); assay: Test A preemergence; details: Preemergence; for Plant response rating, Foxtail, Giant: 125 g ai/ha, visual injury after approximately 10 d, 0 to 100 scale where 0 is no effect and 100 is complete control; for Foxtail, Giant plant response rating (0 to 100 scale, 0 is no effect, 100 is complete control): 500 g ai/ha, visual injury approx. 10 d
Outline: as §1

[7] = system: barnyardgrass (Echinochloa crus-galli); assay: Test A postemergence
Outline: as §1

[8] = system: pigweed (Amaranthus retroflexus); assay: Test A postemergence
Outline: as §1

[9] = system: ragweed (common ragweed, Ambrosia elatior); assay: Test A postemergence
Outline: as §1

[10] = system: ryegrass, Italian (Italian ryegrass, Lolium multiflorum); assay: Test A postemergence
Outline: as §1

[11] = system: wheat (Triticum aestivum); assay: Test A postemergence
Outline: as §1

corn (Zea mays) = assay: Test A postemergence
Outline: as §1

[12] = system: blackgrass (Alopecurus myosuroides); assay: Test A postemergence
Outline: as §1

Kochia (Kochia scoparia) [13] = assay: Test A postemergence
Outline: as §1

[14] = system: Galium (catchweed bedstraw, Galium aparine); assay: Test A postemergence
Outline: as §1

[15] = system: giant foxtail (Setaria faberii); assay: Test A postemergence
Outline: as §1

[16] = system: barnyardgrass (Echinochloa crus-galli); assay: Test B flooded paddy test; details: Flood, 250 g ai/ha; 0 to 100 scale where 0 is no effect and 100 is complete control; 13 to 15 d
Outline: (§2)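 Compound goes directly into floodwater once pots are flooded 3 cm above soil, targeting plants at two leaves; the water depth is then held for the test duration. Plants sit 13–15 d in a greenhouse and are rated visually, 100 denoting complete control.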

[17] = system: sedge, umbrella (small-flower umbrella sedge, Cyperus difformis); assay: Test B flooded paddy test; details: Flood, 250 g ai/ha; 0 to 100 scale where 0 is no effect and 100 is complete control; 13 to 15 d
Outline: as §2

[18] = system: ducksalad (Heteranthera limosa); assay: Test B flooded paddy test; details: Flood, 250 g ai/ha; 0 to 100 scale where 0 is no effect and 100 is complete control; 13 to 15 d
Outline: as §2

rice (Oryra sativa) = assay: Test B flooded paddy test; details: Flood, 250 g ai/ha; 0 to 100 scale where 0 is no effect and 100 is complete control; 13 to 15 d
Outline: as §2

[19] = 125 g ai/ha, postemergence, visual rating after approx. 10 d, 0 to 100 scale (0 no effect, 100 complete control)
[20] = Postemergence, 500 g ai/ha, 0 to 100 scale where 0 is no effect and 100 is complete control

Row | SMILES | Plant response rating, Barnyardgrass [1] | Barnyardgrass plant response rating (0 to 100 scale, 0 is no effect, 100 is complete control) [1] | Plant response rating, Pigweed [2] | Pigweed plant response rating (0 to 100 scale, 0 is no effect, 100 is complete control) [2] | Plant response rating, Ragweed [3] | Ragweed plant response rating (0 to 100 scale, 0 is no effect, 100 is complete control) [3] | Plant response rating, Ryegrass, Italian [4] | Ryegrass, Italian plant response rating (0 to 100 scale, 0 is no effect, 100 is complete control) [4] | Plant response rating, Kochia (Kochia (Kochia scoparia) [5]) | Kochia plant response rating (0 to 100 scale, 0 is no effect, 100 is complete control) (Kochia (Kochia scoparia) [5]) | Plant response rating, Foxtail, Giant [6] | Foxtail, Giant plant response rating (0 to 100 scale, 0 is no effect, 100 is complete control) [6] | Plant response rating, Barnyardgrass [7, 19] | Plant response rating, Barnyardgrass [7, 20] | Plant response rating, Pigweed [8, 19] | Plant response rating, Pigweed [8, 20] | Plant response rating, Ragweed [9, 19] | Plant response rating, Ragweed [9, 20] | Plant response rating, Ryegrass, Italian [10, 19] | Plant response rating, Ryegrass, Italian [10, 20] | also measured
1 | O=C1NCC(c2cc(C(F)(F)F)cc(C(F)(F)F)c2)C1C(=O)Nc1cccc(F)c1F (stereo not drawn) [Compound 588] | 90 | 90 | 0 | 0 | 0 | 0 | 80 | 50 | 0 | 0 | 90 | 90 | 80 | 80 | 20 | 40 | 0 | 50 | 0 | 50 | Plant response rating, Wheat [11, 19]: 0; Plant response rating, Wheat [11, 20]: 40; Plant response rating, Corn (corn (Zea mays); [19]): 0; Plant response rating, Corn (corn (Zea mays); [20]): 70; Plant response rating, Blackgrass [12, 19]: 20; Plant response rating, Blackgrass [12, 20]: 50; Plant response rating, Kochia (Kochia (Kochia scoparia) [13]; [19]): 0; Plant response rating, Kochia (Kochia (Kochia scoparia) [13]; [20]): 70; Plant response rating, Galium [14, 19]: 0; Plant response rating, Galium [14, 20]: 30; Plant response rating, Foxtail, Giant [15, 19]: 80; Plant response rating, Foxtail, Giant [15, 20]: 80; Plant response rating, Barnyardgrass [16]: 30; Plant response rating, Sedge, Umbrella [17]: 0; Plant response rating, Ducksalad [18]: 70; Plant response rating, Rice (rice (Oryra sativa)): 30
2 | O=C1NCC(c2cccc(C(F)(F)F)c2F)C1C(=O)Nc1ccc(F)cc1F (stereo not drawn) [Compound 592] | 90 | 90 | 0 | 0 | 0 | 20 | 0 | 50 | 0 | 30 | 90 | 90 | 80 | 90 | 0 | 0 | 0 | 0 | 0 | 0 | Plant response rating, Wheat [11, 19]: 30; Plant response rating, Wheat [11, 20]: 70; Plant response rating, Corn (corn (Zea mays); [19]): 50; Plant response rating, Corn (corn (Zea mays); [20]): 70; Plant response rating, Blackgrass [12, 19]: 30; Plant response rating, Blackgrass [12, 20]: 60; Plant response rating, Kochia (Kochia (Kochia scoparia) [13]; [19]): 0; Plant response rating, Kochia (Kochia (Kochia scoparia) [13]; [20]): 40; Plant response rating, Galium [14, 19]: 20; Plant response rating, Galium [14, 20]: 30; Plant response rating, Foxtail, Giant [15, 19]: 80; Plant response rating, Foxtail, Giant [15, 20]: 90; Plant response rating, Barnyardgrass [16]: 55; Plant response rating, Sedge, Umbrella [17]: 0; Plant response rating, Ducksalad [18]: 80; Plant response rating, Rice (rice (Oryra sativa)): 0
3 | O=C1NCC(c2ccsc2Br)C1C(=O)Nc1cccc(F)c1F (stereo not drawn) [Compound 598] | 0 | 60 | 0 | 0 | 0 | 0 | 0 | 20 | 0 | 0 | 0 | 60 | 10 | 80 | 0 | 0 | 0 | 20 | 0 | 0 | Plant response rating, Wheat [11, 19]: 0; Plant response rating, Wheat [11, 20]: 0; Plant response rating, Corn (corn (Zea mays); [19]): 0; Plant response rating, Corn (corn (Zea mays); [20]): 0; Plant response rating, Blackgrass [12, 19]: 0; Plant response rating, Blackgrass [12, 20]: 0; Plant response rating, Kochia (Kochia (Kochia scoparia) [13]; [19]): 0; Plant response rating, Kochia (Kochia (Kochia scoparia) [13]; [20]): 20; Plant response rating, Galium [14, 19]: 0; Plant response rating, Galium [14, 20]: 30; Plant response rating, Foxtail, Giant [15, 19]: 0; Plant response rating, Foxtail, Giant [15, 20]: 20; Plant response rating, Barnyardgrass [16]: 0; Plant response rating, Sedge, Umbrella [17]: 0; Plant response rating, Ducksalad [18]: 65; Plant response rating, Rice (rice (Oryra sativa)): 0
4 | O=C1NCC(c2ccsc2Cl)C1C(=O)Nc1ccccc1F (stereo not drawn) [Compound 599] | 0 | 30 | 0 | 0 | 0 | 0 | 0 | 0 | 0 | 0 | 0 | 0 | 0 | 20 | 0 | 0 | 0 | 0 | 0 | 0 | Plant response rating, Wheat [11, 19]: 0; Plant response rating, Wheat [11, 20]: 0; Plant response rating, Corn (corn (Zea mays); [19]): 0; Plant response rating, Corn (corn (Zea mays); [20]): 0; Plant response rating, Blackgrass [12, 19]: 0; Plant response rating, Blackgrass [12, 20]: 0; Plant response rating, Kochia (Kochia (Kochia scoparia) [13]; [19]): 0; Plant response rating, Kochia (Kochia (Kochia scoparia) [13]; [20]): 0; Plant response rating, Galium [14, 19]: 0; Plant response rating, Galium [14, 20]: 0; Plant response rating, Foxtail, Giant [15, 19]: 0; Plant response rating, Foxtail, Giant [15, 20]: 0; Plant response rating, Barnyardgrass [16]: 0; Plant response rating, Sedge, Umbrella [17]: 0; Plant response rating, Ducksalad [18]: 50; Plant response rating, Rice (rice (Oryra sativa)): 0
5 | O=C1NCC(c2ccsc2Cl)C1C(=O)Nc1cccc(F)c1F (stereo not drawn) [Compound 600] | 30 | 90 | 0 | 0 | 0 | 0 | 0 | 0 | 0 | 20 | 30 | 90 | 0 | 90 | 0 | 0 | 0 | 0 | 0 | 0 | Plant response rating, Wheat [11, 19]: 0; Plant response rating, Wheat [11, 20]: 0; Plant response rating, Corn (corn (Zea mays); [19]): 0; Plant response rating, Corn (corn (Zea mays); [20]): 0; Plant response rating, Blackgrass [12, 19]: 0; Plant response rating, Blackgrass [12, 20]: 0; Plant response rating, Kochia (Kochia (Kochia scoparia) [13]; [19]): 0; Plant response rating, Kochia (Kochia (Kochia scoparia) [13]; [20]): 0; Plant response rating, Galium [14, 19]: 0; Plant response rating, Galium [14, 20]: 0; Plant response rating, Foxtail, Giant [15, 19]: 0; Plant response rating, Foxtail, Giant [15, 20]: 30; Plant response rating, Barnyardgrass [16]: 0; Plant response rating, Sedge, Umbrella [17]: 0; Plant response rating, Ducksalad [18]: 85; Plant response rating, Rice (rice (Oryra sativa)): 15
